According to patent US20100152429A1, “SODIUM SALT OF DISACCHARIDE COMPOUND, METHOD FOR PRODUCING THE SAME, AND USE OF THE SAME” (Eisai R&D Management Co., Ltd., priority 2006, published 2010):

Assay: Storage Safety Test: impurity generation on storage at 25° C., HPLC;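 also: HPLC peak area percentages of three decomposition products, each sample run alongside a methanol-only blank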
Type: physicochemical
Settings: HPLC percentage of area
[1] = 0 days, stored in glass bottles at 25° C.
[2] = 1.0 days, stored at 25° C., listed as 3.67 Na salt
[3] = 1.9 days, stored at 25° C., listed as 3.67 Na salt
[4] = 4.5 days, stored at 25° C., listed as 3.67 Na salt
[5] = 1.0 days, stored at 25° C., listed as 3.93 Na salt
[6] = 1.9 days, stored at 25° C., listed as 3.93 Na salt
[7] = 4.5 days, stored at 25° C., listed as 3.93 Na salt

Protocol: When HPLC analysis was performed under the conditions shown in Table 1 for each solution and blank solution (methanol only), three types of decomposition product were identified, and the generation ratio (converted to a monthly basis) was calculated for each of the three decomposition products (impurities A, B and C) as a percentage of area.

Which “Impurity A” value [1] does the source give for `CCCCCC/C=C\CCCCCCCCCC(=O)N[C@H]1[C@H](OC[C@H]2O[C@H](OP(=O)([O-])[O-])[C@H](NC(=O)CC(=O)CCCCCCCCCCC)[C@@H](OCCCCCCCCCC)[C@@H]2O)O[C@H](COC)[C@@H](OP(=O)([O-])[O-])[C@@H]1OCC[C@@H](CCCCCCC)OC.[Na+].[Na+].[Na+].[Na+]` [Example 3] here?
The value was 0.00.

What about the “Impurity C” value [1] of the same molecule?
Its value is 0.00.

And the “Impurity B” value (0 days, stored in glass bottles at 25° C., listed as 3.67 Na salt)?
The value was 0.08.

And the “Impurity C” value (1.0 days, stored at 25° C.)?
Its value is 0.00.

And the “Impurity A” value [2]?
Its value is 0.00.

What about the “Impurity B” value [2] of the same molecule?
Its value is 0.12.

What about the “Impurity C” value (1.9 days, stored at 25° C.) of the same molecule?
The value was 0.00.

And the “Impurity A” value [3]?
The value was 0.01.

What about the “Impurity B” value [3] of the same molecule?
Its value is 0.09.

And the “Impurity C” value (4.5 days, stored at 25° C.)?
Its value is 0.01.

And the “Impurity A” value [4]?
The value was 0.01.

And the “Impurity B” value [4]?
The value was 0.13.

What about the “Impurity C” value (8.8 days, stored at 25° C.) of the same molecule?
The value was 0.01.

And the “Impurity C” value (29.5 days, stored at 25° C., listed as 3.67 Na salt)?
The value was 0.07.

What does the source list for `CCCCCCC=CCCCCCCCCCC(=O)NC1C(OCC2OC(OP(=O)([O-])[O-])C(NC(=O)CC(=O)CCCCCCCCCCC)C(OCCCCCCCCCC)C2O)OC(COC)C(OP(=O)([O-])[O-])C1OCCC(CCCCCCC)OC.[Na+].[Na+].[Na+].[Na+]` (stereo not drawn) [Comparative Example 1, reference compound]?
Impurity A [1]: 0.00; Impurity B [1]: 0.18; Impurity C [1]: 0.00; Impurity A (1.0 days, stored at 25° C.): 0.06; Impurity B (1.0 days, stored at 25° C.): 0.36; Impurity C (1.0 days, stored at 25° C.): 0.00; Impurity A (1.9 days, stored at 25° C.): 0.08; Impurity B (1.9 days, stored at 25° C.): 0.48; Impurity C (1.9 days, stored at 25° C.): 0.00; Impurity A (4.5 days, stored at 25° C.): 0.12; Impurity B (4.5 days, stored at 25° C.): 0.67; Impurity C (4.5 days, stored at 25° C.): 0.00; Impurity C (8.8 days, stored at 25° C.): 0.00; Impurity C (29.5 days, stored at 25° C.): 0.03

With `CCCCCC/C=C\CCCCCCCCCC(=O)N[C@H]1[C@H](OC[C@H]2O[C@H](OP(=O)(O)O)[C@H](NC(=O)CC(=O)CCCCCCCCCCC)[C@@H](OCCCCCCCCCC)[C@@H]2O)O[C@H](COC)[C@@H](OP(=O)(O)O)[C@@H]1OCC[C@@H](CCCCCCC)OC` [Example 2] as the molecule, how does the “Impurity A” value [1] read?
The value was 0.00.

And the “Impurity B” value [1]?
Its value is 0.00.

What about the “Impurity C” value [1] of the same molecule?
Its value is 0.00.

What about the “Impurity A” value (18 days, stored at 25° C.) of the same molecule?
The value was 0.00.

And the “Impurity B” value (18 days, stored at 25° C.)?
The value was 0.00.

And the “Impurity C” value (18 days, stored at 25° C.)?
Its value is 0.17.

What does the source list for `CCCCCC/C=C\CCCCCCCCCC(=O)N[C@H]1[C@H](OC[C@H]2O[C@H](OP(=O)([O-])[O-])[C@H](NC(=O)CC(=O)CCCCCCCCCCC)[C@@H](OCCCCCCCCCC)[C@@H]2O)O[C@H](COC)[C@@H](OP(=O)([O-])[O-])[C@@H]1OCC[C@@H](CCCCCCC)OC.[Na+].[Na+].[Na+].[Na+]` [Example 4]?
Impurity B (0 days, stored in glass bottles at 25° C., listed as 3.93 Na salt): 0.14; Impurity A [5]: 0.03; Impurity B [5]: 0.26; Impurity A [6]: 0.04; Impurity B [6]: 0.29; Impurity A [7]: 0.06; Impurity B [7]: 0.38; Impurity C (29.5 days, stored at 25° C., listed as 3.93 Na salt): 0.06
